Tests used:
[1] = biological target: T1, dopamine transporter (^3 H-dopamine uptake) (Rattus norvegicus, UniProt P23977); assay: In vitro inhibition of ^3 H-dopamine (^3 H-DA) uptake in striatal synaptosomes; format: biochemical, rat (male Wistar); details: ^3 H-DA 1 nM, 25 min at 37° C.
T1 construct: Corpi striati from male Wistar rats (150-200 g) are homogenized; from tissue; host or cells: P2 synaptosomes of corpus striatum, male Wistar rats
Excerpt: (§1) The compounds of the invention have also been tested for their ability to inhibit reuptake of dopamine(DA) noradrenalin(NA) and serotonin(5-HT) in synaptosomes.
(§2) Specific neurotransmitter transporters/uptake sites on nerve terminals presumably function to terminate neuronal signaling by removing the neurotransmitters dopamine, noradrenaline and serotonin, respectively, from the synaptic cleft. The activity of the transporter integral proteins can be measured in vitro by synaptosomal uptake of ^3 H-dopamine, ^3 H-noradrenaline and ^3 H-serotonine, respectively.
In vitro inhibition of ^3 H-dopamine (^3 H-DA) uptake in striatal synaptosomes
(§3) Tissue preparations: Preparations are performed at 0°-4° C. unless otherwise indicated. Corpi striati from male Wistar rats (150-200 g) are homogenized for 5-10 sec in 100 volumes of ice-cold 0.32M sucrose containing 1 mM pargyline using an Ultra-Turrax homogenizer. Monoamine oxidase activity will be inhibited in the presence of pargyline. The homogenate is centrifuged at 1000×g for 10 min. The resulting supermatant is then centrifuged at 27,000×g for 50 min and the supernatant is discarded. The pellet (P2) is resuspended in oxygenated (equilibrated with an atmosphere of 96% O2 : 4% CO2 for at least 30 min) Krebs-Ringer incubation buffer (8000 ml per g of original tissue) at pH 7.2 containing 122 mM NaCl, 0.16 mM EDTA, 4.8 mM KCl, 12.7 mM Na2 HPO4, 3.0 mM NaH2 PO4, 1.2 mM MgSO4, 1 mM CaCl2, 10 mM glucose and 1 mM ascorbic acid.
(§4) Assay: Aliquots of 4.0 ml tissue suspension are added to 100 μl of test solution and 100 μl of ^3 H-DA (1 nM, final concentration), mixed and incubated for 25 min at 37° C. Non-specific uptake is determined using benztropine (10 μM, final concentration). After incubation the samples are poured directly onto Whatman GF/C glass fibre filters under suction. […] The amount of radioactivity on the filters is determined by conventional liquid scintillation counting. Specific uptake is calculated as the difference between total uptake and non-specific uptake. […]

[2] = biological target: T2, ^3 H-noradrenaline uptake (noradrenaline transporter) (Rattus norvegicus, UniProt Q63380); assay: In vitro inhibition of ^3 H-noradrenaline (^3 H-NA) uptake in hippocampal synaptosomes; format: biochemical, rat (male Wistar); details: ^3 H-NA 1 nM, 90 min at 37° C.
T2 construct: Hippocampi from male Wistar rats (150-200 g) are homogenized; from tissue; host or cells: P2 synaptosomes of hippocampus, male Wistar rats
T2 sequence (Q63380 1-617): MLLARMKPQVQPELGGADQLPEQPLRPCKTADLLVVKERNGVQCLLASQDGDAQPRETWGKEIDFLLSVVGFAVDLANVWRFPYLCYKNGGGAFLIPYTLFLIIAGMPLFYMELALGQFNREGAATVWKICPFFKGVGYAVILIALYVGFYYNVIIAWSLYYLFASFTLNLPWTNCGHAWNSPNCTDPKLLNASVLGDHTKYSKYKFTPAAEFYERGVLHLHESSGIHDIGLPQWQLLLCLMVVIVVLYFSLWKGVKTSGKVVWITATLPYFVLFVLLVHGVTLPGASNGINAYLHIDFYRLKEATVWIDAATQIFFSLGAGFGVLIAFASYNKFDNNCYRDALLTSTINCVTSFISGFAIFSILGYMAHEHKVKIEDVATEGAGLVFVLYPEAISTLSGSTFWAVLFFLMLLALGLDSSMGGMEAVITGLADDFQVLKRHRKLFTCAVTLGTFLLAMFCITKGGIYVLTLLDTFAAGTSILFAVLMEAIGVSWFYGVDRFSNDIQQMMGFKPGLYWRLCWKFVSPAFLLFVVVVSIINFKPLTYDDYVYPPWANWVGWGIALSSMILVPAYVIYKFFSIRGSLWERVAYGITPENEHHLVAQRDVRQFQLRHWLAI
Excerpt: as §1, §2
In vitro inhibition of ^3 H-noradrenaline (^3 H-NA) uptake in hippocampal synaptosomes
as §3, with “Tissue preparation:” for “Tissue preparations:”, “indicated. Hippocampi” for “indicated. Corpi striati”, “resulting supernatant” for “resulting supermatant”, “buffer (2000” for “buffer (8000”, “MgSO4, 0.97” for “MgSO4, 1”
as §4, with “H-NA” for “H-DA”, “90” for “25”, “desipramine (1” for “benztropine (10”

[3] = system: MPTP-induced Parkinsonism in Marmoset Monkeys; assay: Antagonism of MTPT-induced Parkinsonism in Marmoset Monkeys; format: in vivo, common marmoset; details: MPTP-treated marmosets, oral gavage, 0.1 to 2.5 mg/kg; for locomotor activity: 10 h
Excerpt: Antagonism of MTPT-induced Parkinsonism in Marmoset Monkeys
Administration of MPTP (1-methyl-4-phenyl-1,2,3,6-tetrahydropyridine, hydrochloride) to monkeys induce a lesion of the dopaminergic system in the brain and gives rise to parkinsonian symptoms. By subsequent administration of test-compounds, the ability of the compounds to alleviate the parkinsonian signs can be tested.
Common marmosets (weighing 350-400 g, aged 3-5 years and of either sex) were used in the study. Animals were housed alone under standard conditions at a temperature of […] and 50% relative humidity using a 12 hour light-dark cycle. Animals had free access to food and Water.
Some months before locomotor or behavioural testing began, animals were treated with MPTP (1-methyl-4-phenyl-1,2,3,6-tetrahydropyridine, hydrochloride) dissolved in sterile 0.9% saline in doses of 2 mg/kg administered subcutaneously daily for 5 days or until a clear parkinsonian state developed. The cumulative doses administered ranged between 8-12 mg/kg. During MPTP treatment and throughout the following 2-3 weeks the animals were hand fed until they had recovered enough to be able to feed themselves.
Test compounds was dissolved in 100% Tween 80 with warming to 40°-50° C. and then diluted with water. Test compounds was given by oral gavage in a volume of 2 ml/kg. In addition test compound vehicle was administered on each experimental day for comparison with drug treatments. Each animal was treated with vehicle or one of the three doses of test compound over the following weeks, with a one week period of recovery between treatments.
Rating of disability: The disability of animals were scored as follows; alertness (normal 0, sleepy 2); reaction to stimuli (normal 0, reduced 1, slow 2, absent 3); checking movements (present 0, reduced 1, absent 2); attention and eye movements (normal 0, abnormal 1); posture (normal 0, abnormal trunk 1, abnormal limbs 1, abnormal tail 1, or grossly abnormal 4); balance/coordination (normal 0, impaired 1, unstable 2, spontaneous falls 3); vocalization (normal 0, reduced 1, absent 2).
Measurement of locomotor activity: Locomotor activity was measured simultaneously for four individual animals each in a metal cage (50 w×60 l×70 h cm) with transparent plastic doors (50 w×70 h cm) similar to the home cages but fitted with eight horizontally orientated infrared photocells. […] Locomotor counts were measured as the number of light beam interuptions which occured as the animals moved about. These movement counts were accumulated in 30 minutes intervals and recorded for the 10 h duration of experimentation.
Data analysis: The mean (±) s.e.m. was calculated for time courses and accumulated locomotor counts or behavioural disability scores for the different treatment groups.

[4] = system: stereotyped behaviour of the rat; assay: Abnormal stereotyped behaviour (side effect profile); format: in vivo; set-up: key to Activity (high intensity stereotypy): +: only stereotyped sniffing; ++: stereotyped sniffing and episodic licking; +++: continuous licking and/or biting gnawing
Excerpt: Side Effect Profile of the Compounds of the Present Invention
The side effects of cocaine and the central stimulant amphetamine derivatives involve central excitement and stimulation in animals including primates and these effects can also be observed in humans. A serious side effect of cocaine and of the amphetamine derivatives includes also the ability to provoke toxic psychotic symptoms closely resembling the mental disease schizophrenia and these include halucinations, paranoia and abnormal bizarre stereotyped mental activity and stereotypy.
The induction of stereotyped abnormal behavior in rodents thus also represents one of the most used animal models of schizophrenia in models for antipsychotic neuroleptic drugs (including haloperidol and chlorpromazine).
The development of toxic abnormal stereotyped amphetamine syndrome as described below may predict a toxic central stimulant side effect of dopamine releasing compounds in humans.
Classification of the Abnormal Stereotyped Behaviour
In general, the abnormal stereotyped behaviour after administration of amphetamine and cocaine-like central stimulant drugs can be classified into "low" and "high" intensity scores of stereotyped behaviour. […]

dopamine transporter [5] = biological target: dopamine transporter (Mus musculus, UniProt Q61327); details: cited from earlier work
Sequence of dopamine transporter (Mus musculus, UniProt Q61327) (Q61327 whole entry): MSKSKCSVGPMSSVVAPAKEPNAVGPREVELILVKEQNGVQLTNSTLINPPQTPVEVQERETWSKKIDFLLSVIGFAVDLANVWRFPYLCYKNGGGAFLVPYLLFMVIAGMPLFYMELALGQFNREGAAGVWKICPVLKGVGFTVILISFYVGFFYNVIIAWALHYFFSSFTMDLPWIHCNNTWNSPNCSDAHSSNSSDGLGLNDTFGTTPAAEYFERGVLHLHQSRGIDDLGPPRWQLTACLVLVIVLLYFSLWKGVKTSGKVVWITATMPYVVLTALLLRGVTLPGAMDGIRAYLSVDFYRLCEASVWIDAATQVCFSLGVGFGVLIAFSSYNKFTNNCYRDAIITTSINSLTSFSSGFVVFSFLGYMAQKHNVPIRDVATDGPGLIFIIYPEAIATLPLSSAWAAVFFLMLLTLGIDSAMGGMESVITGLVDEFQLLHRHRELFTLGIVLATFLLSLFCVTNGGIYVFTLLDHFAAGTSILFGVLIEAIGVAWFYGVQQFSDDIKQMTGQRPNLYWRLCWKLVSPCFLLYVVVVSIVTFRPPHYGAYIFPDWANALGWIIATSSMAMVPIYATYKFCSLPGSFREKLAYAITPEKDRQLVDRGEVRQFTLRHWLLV

dopamine transporter [6] = biological target: T3, dopamine transporter (Rattus norvegicus, UniProt P23977); details: background, in vitro, in words; cited from earlier work
T3 construct: Corpus striatum from male Wistar rats (150-200 g) is homogenized; from tissue; host or cells: corpus striatum of male Wistar rats
T3 sequence (P23977 whole entry): as the sequence (Q61327 whole entry) above, with P21S, V57A, S194A, R600H, V619L counted along it

[7] = biological target: T1, dopamine transporter (^3 H-dopamine uptake); details: background, in words; cited from earlier work

T1 sequence (P23977 whole entry): as the sequence (Q61327 whole entry) above, with P21S, V57A, S194A, R600H, V619L counted along it

Structure (SMILES): CON=C[C@@H]1[C@@H](c2ccc(Cl)c(Cl)c2)C[C@@H]2CC[C@H]1N2C (single isomer, unassigned) [(1R,2R,3S)-3-(3,4-dichlorophenyl)-tropane 2-O-methyl-aldoxime, syn-isomere]
- IC50 [1]: 3.4 nM
- IC50 [2]: 1.5 nM

Structure (SMILES): CON=C[C@@H]1[C@@H](c2ccc(Cl)c(Cl)c2)C[C@@H]2CC[C@H]1N2C [NS2214, (1R,2R,3S)-3-(3,4-dichlorophenyl)tropane-2O-methyl-aldoxime]
- disability scores [3]: dose-dependent decrease in disability scores
- locomotor activity [3]: dose dependent increase in locomotor activity
- locomotor activity ([3]; listed as NS 2214): dose-dependent increase in locomotor activity
- disability scores ([3]; listed as NS 2214): dose dependent decrease in disability scores
- Activity (high intensity stereotypy) ([4]; 15 mg/kg p.o.): +++
- lowest dosis giving the activity indicated (stereotypy +++) ([4]; p.o.): 15 mg/kg

Structure (SMILES): COC(=O)[C@H]1[C@@H](c2ccc(F)cc2)C[C@@H]2CC[C@H]1N2C [^3 H-WIN 35428]
- time to maximum of specific binding in the striatum (dopamine transporter [5]; in vivo, iv): 30 min
- binding to the dopamine transporter (dopamine transporter [6]): binds selectively and with high affinity to the dopamine transporter complex

Structure (SMILES): COC(=O)[C@H]1[C@@H](OC(=O)c2ccccc2)C[C@@H]2CC[C@H]1N2C [cocaine]
- prevention of specific binding of ^3 H-WIN 35428 in vivo (dopamine transporter [5]): partly or completely prevented
- binding to the dopamine transporter (dopamine transporter [6]): binds to the dopamine transporter
- inhibition of ^3 H-dopamine uptake [7]: inhibits ^3 H-dopamine uptake
